Results: ChEMBL document CHEMBL1201862, “PubChem BioAssay data set” (2004)
Activity calls are given as the source filed them.

Key:
[1] = Luminescence Cell-Based Dose Confirmation HTS to Identify Activators of 5'UTR Stem-Loop Driven Alpha-Synuclein mRNA Translation in H4 Neuroglioblastoma Cells. [Related pubchem assays: 1829 (Project Summary), 1814 (Primary HTS)]; format: functional
[2] = target: Dual specificity tyrosine-phosphorylation-regulated kinase 1A (Rattus norvegicus, UniProt Q63470); format: biochemical, Homo sapiens
[3] = target: Dual specificity protein kinase CLK1 (Homo sapiens, UniProt P49759); assay: inhibition of human CLK1 activity – biochemical, cherry-picked samples, selectivity assay for Dyrk1A inhibitor project, dose response (AID 588811)
[4] = Luminescence Cell-Based Dose Response HTS to Identify Activators of Luciferase Translation or Activity in H4 […] Cells. [Related pubchem assays: 1829 (Project Summary), 1814 (Primary HTS)]; format: functional
[5] = target: FAD-linked sulfhydryl oxidase ALR (Homo sapiens, UniProt P55789); assay: ALR-catalysed DTT oxidation blockers – biochemical, H2O2 detection, luminescence, cherry-pick, dose response (AID 493248)
[6] = system: H4; assay: Luminescence Cell-Based Dose Response HTS to Identify Activators of 5'UTR Stem-Loop Driven Prion Protein mRNA Translation in H4 Neuroglioblastoma Cells. [Related pubchem assays: 1829 (Project Summary), 1814 (Primary HTS)]; format: functional; conditions: Homo sapiens
[7] = target: T1, Sentrin-specific protease 6 (Homo sapiens, UniProt Q9GZR1); format: functional;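 also: Luminescence-based dose-response confirmatory assay of SENP6 inhibition, following up an ultra-high-throughput screen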
T1 sequence (Q9GZR1 whole entry): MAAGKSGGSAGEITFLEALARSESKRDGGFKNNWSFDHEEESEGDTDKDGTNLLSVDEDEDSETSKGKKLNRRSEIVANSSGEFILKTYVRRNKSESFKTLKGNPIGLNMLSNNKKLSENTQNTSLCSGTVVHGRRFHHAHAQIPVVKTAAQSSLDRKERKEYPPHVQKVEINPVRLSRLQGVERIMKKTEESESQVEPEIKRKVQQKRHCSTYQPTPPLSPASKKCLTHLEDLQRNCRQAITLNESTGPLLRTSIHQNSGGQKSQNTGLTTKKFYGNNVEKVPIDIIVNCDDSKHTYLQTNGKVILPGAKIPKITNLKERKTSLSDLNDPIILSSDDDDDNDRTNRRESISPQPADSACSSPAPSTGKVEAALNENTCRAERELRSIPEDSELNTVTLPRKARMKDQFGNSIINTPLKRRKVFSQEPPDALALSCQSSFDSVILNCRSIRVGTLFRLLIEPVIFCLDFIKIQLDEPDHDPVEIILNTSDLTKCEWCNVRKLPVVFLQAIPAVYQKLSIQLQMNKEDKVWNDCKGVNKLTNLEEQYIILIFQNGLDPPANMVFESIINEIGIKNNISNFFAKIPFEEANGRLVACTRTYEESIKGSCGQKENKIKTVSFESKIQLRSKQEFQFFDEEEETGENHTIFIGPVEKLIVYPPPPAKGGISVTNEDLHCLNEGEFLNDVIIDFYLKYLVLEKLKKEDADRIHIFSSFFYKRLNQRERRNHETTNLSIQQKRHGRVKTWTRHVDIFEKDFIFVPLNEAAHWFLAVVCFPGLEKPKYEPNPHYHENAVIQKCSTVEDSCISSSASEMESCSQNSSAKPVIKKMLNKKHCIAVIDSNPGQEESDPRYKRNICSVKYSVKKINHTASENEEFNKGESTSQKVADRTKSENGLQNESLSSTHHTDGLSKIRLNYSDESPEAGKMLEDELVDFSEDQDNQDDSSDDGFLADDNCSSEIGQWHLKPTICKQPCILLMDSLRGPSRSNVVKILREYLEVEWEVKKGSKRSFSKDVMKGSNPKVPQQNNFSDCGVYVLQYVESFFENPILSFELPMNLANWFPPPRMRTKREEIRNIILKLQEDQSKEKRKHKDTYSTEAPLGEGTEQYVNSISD

[8] = system: A-375; assay: MITF: Counter assay: A375 proliferation Measured in Cell-Based System Using Plate Reader - 2084-03_Inhibitor_Dose_DryPowder_Activity. [Related pubchem assays (depositor defined):AID488944]; format: functional; conditions: Homo sapiens
[9] = target: T2, Sentrin-specific protease 7 (Homo sapiens, UniProt Q9BQF6); format: functional;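 also: Luminescence-based dose-response confirmation of ultra-high-throughput screening hits, measuring inhibition of SENP7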
T2 sequence (Q9BQF6 whole entry): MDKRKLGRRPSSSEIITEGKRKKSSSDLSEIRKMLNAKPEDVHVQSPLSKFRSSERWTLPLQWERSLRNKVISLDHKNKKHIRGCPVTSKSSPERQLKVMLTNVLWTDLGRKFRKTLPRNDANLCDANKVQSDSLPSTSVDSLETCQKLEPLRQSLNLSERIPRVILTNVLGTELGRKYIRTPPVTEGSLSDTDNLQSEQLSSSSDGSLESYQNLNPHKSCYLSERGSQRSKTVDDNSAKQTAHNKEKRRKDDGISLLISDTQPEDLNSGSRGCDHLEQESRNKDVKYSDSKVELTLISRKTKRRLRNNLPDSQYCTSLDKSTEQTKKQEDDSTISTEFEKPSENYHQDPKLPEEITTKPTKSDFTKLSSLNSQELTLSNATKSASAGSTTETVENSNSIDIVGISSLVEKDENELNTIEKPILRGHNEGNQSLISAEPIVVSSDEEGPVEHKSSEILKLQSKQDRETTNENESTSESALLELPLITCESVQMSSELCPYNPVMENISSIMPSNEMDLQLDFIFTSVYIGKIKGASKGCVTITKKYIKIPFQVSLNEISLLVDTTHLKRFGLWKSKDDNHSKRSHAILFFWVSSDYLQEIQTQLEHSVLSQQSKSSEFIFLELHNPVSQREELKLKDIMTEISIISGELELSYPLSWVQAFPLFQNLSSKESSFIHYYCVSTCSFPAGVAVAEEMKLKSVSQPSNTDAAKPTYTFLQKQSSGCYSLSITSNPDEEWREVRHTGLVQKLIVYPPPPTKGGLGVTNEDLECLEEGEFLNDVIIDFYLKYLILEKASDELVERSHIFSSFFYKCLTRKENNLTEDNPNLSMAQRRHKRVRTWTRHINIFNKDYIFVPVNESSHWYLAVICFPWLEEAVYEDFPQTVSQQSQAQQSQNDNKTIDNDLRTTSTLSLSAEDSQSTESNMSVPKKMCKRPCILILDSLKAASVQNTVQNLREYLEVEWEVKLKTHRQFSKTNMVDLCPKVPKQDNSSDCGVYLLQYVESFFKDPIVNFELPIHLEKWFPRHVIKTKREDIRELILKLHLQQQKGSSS

[10] = target: T3, Sentrin-specific protease 8 (Homo sapiens, UniProt Q96LD8); format: functional;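 also: luminescence read-out of SENP8 inhibition, dose-response confirmation following an ultra-high-throughput screen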
T3 sequence (Q96LD8 whole entry): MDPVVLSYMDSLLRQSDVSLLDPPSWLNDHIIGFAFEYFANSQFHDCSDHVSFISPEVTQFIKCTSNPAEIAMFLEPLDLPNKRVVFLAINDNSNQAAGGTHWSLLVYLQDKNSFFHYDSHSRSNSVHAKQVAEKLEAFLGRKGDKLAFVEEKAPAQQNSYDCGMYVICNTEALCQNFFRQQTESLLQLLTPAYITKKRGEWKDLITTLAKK

[11] = target: T4, Caspase-3 (Homo sapiens, UniProt P42574); format: functional;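 also: Dose-response selectivity test against caspase-3 for candidate inhibitors of sentrin-specific proteases (SENPs)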
T4 sequence (P42574 whole entry): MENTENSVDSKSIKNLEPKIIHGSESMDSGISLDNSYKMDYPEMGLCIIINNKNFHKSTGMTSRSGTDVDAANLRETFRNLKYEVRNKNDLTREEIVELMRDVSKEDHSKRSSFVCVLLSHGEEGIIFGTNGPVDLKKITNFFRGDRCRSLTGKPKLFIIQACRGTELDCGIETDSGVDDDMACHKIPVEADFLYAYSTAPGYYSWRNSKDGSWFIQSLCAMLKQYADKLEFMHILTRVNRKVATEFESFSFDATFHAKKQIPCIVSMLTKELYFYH

[12] = system: A-375; assay: proliferation inhibition in MITF-low A375 cells – cell-based, cherry-pick samples, set 2, counter-screen for MITF modulator project, dose response (AID 540335); format: functional; conditions: Homo sapiens
[13] = system: NIH3T3; assay: mammalian cell viability counter-check – Alamar Blue, fluconazole, dry powder, cytotoxicity control for antifungal drug resistance project, dose response (AID 488809); format: functional, cell-based; conditions: Mus musculus
[14] = target: T5, Histone-lysine N-methyltransferase NSD2 (Homo sapiens, UniProt O96028); format: biochemical
T5 sequence (O96028 whole entry): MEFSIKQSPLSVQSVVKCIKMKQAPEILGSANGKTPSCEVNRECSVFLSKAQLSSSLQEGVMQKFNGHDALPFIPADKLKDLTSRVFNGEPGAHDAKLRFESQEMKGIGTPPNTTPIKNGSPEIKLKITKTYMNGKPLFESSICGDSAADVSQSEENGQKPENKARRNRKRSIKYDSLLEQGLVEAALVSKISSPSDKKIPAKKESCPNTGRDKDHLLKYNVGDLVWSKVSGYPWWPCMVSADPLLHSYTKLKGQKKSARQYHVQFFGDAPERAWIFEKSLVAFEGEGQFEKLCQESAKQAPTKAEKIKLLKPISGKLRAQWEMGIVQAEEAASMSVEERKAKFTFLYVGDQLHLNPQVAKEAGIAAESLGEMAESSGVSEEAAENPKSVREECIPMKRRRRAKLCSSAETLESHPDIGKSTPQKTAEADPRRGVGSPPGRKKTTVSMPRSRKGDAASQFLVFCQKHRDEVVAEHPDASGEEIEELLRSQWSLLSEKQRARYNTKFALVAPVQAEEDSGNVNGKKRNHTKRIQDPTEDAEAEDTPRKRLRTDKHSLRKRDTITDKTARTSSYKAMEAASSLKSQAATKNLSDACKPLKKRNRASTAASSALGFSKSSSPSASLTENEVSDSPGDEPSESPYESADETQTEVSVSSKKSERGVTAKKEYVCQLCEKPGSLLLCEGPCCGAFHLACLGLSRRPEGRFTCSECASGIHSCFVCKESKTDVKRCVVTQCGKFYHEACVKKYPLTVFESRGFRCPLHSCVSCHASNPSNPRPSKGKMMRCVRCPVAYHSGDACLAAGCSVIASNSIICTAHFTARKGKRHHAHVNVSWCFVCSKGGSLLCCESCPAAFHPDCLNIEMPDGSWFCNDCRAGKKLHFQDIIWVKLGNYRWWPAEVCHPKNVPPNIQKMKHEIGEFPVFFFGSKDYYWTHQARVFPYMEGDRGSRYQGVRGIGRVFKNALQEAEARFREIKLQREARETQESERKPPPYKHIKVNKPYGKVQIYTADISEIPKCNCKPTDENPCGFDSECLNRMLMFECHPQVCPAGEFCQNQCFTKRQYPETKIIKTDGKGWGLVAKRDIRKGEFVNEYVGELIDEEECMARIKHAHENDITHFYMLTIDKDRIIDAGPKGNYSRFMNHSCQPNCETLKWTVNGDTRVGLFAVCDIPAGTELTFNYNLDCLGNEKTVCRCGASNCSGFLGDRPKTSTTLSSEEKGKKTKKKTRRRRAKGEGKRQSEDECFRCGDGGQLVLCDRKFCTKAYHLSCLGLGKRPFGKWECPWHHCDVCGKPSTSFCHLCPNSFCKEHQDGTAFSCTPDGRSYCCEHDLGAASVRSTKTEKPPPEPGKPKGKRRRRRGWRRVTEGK

[15] = target: T6, Beta-adrenergic receptor kinase 1 (Homo sapiens, UniProt P25098); assay: blockers of aptamer binding to GRK2 – biochemical, flow cytometry beads, FAM-aptamer, powder set 1, dose response (AID 588720)
[16] = target: T6, Beta-adrenergic receptor kinase 1; assay: aptamer displacement from bead-bound GRK2 – biochemical, cherry pick 1, bead flow cytometry, dose response (AID 504500)
[17] = target: T7, Caspase-6 (Homo sapiens, UniProt P55212); assay: inhibition of CASP6 peptide cleavage – biochemical, VEID-R110 fluorescence, cherry-pick, dose response (AID 720632)
T7 sequence (P55212 whole entry): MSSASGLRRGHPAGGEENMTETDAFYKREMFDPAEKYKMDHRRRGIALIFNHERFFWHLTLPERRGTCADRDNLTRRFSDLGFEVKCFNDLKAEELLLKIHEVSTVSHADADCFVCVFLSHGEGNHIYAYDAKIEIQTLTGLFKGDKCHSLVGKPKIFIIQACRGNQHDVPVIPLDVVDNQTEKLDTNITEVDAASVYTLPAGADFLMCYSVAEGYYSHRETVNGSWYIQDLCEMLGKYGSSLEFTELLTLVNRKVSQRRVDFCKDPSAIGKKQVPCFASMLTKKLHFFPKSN

[18] = target: T8, Carboxy-terminal domain RNA polymerase II polypeptide A small phosphatase 1 (Homo sapiens, UniProt Q9GZU7); assay: CTDSP1 inhibitors, concentration-response, biochemical, absorbance readout, ultra-high-throughput screen actives (AID 540297); format: functional
T8 sequence (Q9GZU7 whole entry): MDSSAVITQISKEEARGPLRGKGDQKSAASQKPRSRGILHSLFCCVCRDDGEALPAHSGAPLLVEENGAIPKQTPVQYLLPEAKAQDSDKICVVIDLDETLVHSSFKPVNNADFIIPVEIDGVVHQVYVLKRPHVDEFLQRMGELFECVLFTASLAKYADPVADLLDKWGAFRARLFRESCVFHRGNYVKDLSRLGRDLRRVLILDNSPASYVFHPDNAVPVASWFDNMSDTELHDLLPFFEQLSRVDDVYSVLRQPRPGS

[19] = system: Escherichia coli; assay: microbe, parasite or virus in culture
[20] = target: Large T antigen (Simian virus 40, UniProt P03070); format: functional, Betapolyomavirus macacae;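 also: Confirmatory-stage PubChem screen for compounds that inhibit SV40 T antigen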
[21] = target: Heat shock protein HSP 90-alpha (Homo sapiens, UniProt P07900); format: functional, organism-based
[22] = system: Escherichia coli; assay: microbe, parasite or virus in culture; remark: listed apart in the source

Chain of FAD-linked sulfhydryl oxidase ALR (P55789 whole entry): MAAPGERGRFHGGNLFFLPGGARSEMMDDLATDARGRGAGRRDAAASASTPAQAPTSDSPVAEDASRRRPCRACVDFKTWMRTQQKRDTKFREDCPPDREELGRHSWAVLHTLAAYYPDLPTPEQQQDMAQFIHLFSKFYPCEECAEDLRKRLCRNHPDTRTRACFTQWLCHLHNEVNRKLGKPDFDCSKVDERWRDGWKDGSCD
T6 sequence (P25098 whole entry): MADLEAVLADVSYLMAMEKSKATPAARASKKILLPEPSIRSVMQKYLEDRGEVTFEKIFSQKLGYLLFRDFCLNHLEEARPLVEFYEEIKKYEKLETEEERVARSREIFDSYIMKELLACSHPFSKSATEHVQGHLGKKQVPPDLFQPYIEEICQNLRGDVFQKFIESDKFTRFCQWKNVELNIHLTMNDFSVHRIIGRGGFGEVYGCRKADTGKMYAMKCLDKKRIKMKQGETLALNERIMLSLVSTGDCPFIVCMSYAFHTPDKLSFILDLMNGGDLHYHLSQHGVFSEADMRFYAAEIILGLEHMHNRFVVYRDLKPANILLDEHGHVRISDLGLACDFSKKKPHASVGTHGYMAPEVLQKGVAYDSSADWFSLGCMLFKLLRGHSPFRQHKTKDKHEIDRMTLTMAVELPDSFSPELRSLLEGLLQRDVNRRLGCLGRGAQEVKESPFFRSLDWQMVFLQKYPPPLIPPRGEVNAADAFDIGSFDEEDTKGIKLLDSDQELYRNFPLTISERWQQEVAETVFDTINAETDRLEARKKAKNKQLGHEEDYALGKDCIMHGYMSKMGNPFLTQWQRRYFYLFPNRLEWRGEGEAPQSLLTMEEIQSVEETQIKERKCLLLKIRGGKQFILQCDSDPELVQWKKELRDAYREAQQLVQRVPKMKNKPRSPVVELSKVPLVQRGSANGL
Chain of Large T antigen (P03070 whole entry): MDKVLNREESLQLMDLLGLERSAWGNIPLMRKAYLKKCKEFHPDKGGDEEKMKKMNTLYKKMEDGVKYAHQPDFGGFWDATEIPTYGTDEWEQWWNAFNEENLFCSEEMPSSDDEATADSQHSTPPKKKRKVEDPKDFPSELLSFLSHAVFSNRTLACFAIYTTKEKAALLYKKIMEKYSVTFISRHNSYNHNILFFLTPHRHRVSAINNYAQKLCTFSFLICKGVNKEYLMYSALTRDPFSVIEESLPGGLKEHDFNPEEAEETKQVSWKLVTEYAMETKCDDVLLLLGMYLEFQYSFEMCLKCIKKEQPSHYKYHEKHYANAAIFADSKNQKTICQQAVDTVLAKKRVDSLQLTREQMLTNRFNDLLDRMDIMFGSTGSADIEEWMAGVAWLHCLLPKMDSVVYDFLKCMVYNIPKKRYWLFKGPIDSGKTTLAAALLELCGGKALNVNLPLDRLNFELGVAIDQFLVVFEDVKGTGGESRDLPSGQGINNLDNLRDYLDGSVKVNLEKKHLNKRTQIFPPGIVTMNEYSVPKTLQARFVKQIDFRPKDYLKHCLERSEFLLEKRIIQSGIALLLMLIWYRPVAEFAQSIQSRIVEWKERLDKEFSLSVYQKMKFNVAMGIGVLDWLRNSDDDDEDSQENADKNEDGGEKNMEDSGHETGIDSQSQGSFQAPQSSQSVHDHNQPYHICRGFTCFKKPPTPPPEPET
Chain of Dual specificity protein kinase CLK1 (P49759 whole entry): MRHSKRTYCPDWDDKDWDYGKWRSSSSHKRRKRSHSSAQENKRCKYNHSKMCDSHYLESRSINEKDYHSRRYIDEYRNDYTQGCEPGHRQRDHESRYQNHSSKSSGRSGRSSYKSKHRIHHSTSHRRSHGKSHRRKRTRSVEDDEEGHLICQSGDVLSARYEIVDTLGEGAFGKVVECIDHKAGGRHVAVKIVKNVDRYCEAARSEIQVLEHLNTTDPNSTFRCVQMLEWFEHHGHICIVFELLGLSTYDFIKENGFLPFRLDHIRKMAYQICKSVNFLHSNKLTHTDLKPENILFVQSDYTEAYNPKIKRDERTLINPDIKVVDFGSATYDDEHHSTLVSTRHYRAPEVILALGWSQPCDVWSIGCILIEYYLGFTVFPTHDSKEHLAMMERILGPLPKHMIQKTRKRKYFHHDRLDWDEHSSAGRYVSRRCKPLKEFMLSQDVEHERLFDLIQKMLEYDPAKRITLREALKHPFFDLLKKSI

## CC(=O)Nc1ccc(SCc2ncc(-c3ccccc3)o2)cc1
[1]
  EC50: 34.3 µM (active)
[2]
  AC50: 4.26 µM (active)
[3]
  AC50: 0.429 µM (active)
[4]
  EC50: 0.237 µM (active)
[5]
  AC50: 0.44 µM (active)
[6]
  EC50: 11.2 µM (active)

## CCOc1ccc2nc(NC(=O)Cc3cccs3)sc2c1
[7]
  IC50: 33.2 µM (active)
[8]
  AC50: > 35 µM (active)
[9]
  IC50: 7.38 µM (active)
[10]
  IC50: 16.2 µM (active)
[11]
  IC50: 22.9 µM (active)
[12]
  AC50: > 35 µM (active)

## O=C(Cn1nc(-c2ccccc2)c2ccccc21)NCc1ccc(Cl)cc1
[13]
  AC50: 131 µM (active)

## O=C(O)Cc1ccc(-n2cccc2)cc1
[14]
  AC50: 11.9 µM (active)
[15]
  EC50: 3.21 µM (active)
[16]
  EC50: 36.2 µM (inactive)
[17]
  AC50: 2.7 µM (active)
[18]
  IC50: 4.01 µM (active)

## [O-][n+]1ccccc1S [PYRITHIONE]
[19]
  AC50: 9.06 µM (active)
[20]
  IC50: 30.3 µM (active)
[21]
  AC50: 1.01 µM (active)
[5]
  AC50: 0.432 µM (active)
[22]
  AC50: 9.47 µM (active)
